Here are results for 27 compounds from patent publication US11208400B2, “Substituted 6-(1H-pyrazol-1-yl)pyrimidin-4-amine derivatives and uses thereof” (Bayer Aktiengesellschaft, priority 2016, dated 2021).

The experiment concerns the target T1, human Npt2a (Homo sapiens, UniProt Q06495).
T1 construct: expressed in transfected cells
T1 sequence (Q06495 1-639): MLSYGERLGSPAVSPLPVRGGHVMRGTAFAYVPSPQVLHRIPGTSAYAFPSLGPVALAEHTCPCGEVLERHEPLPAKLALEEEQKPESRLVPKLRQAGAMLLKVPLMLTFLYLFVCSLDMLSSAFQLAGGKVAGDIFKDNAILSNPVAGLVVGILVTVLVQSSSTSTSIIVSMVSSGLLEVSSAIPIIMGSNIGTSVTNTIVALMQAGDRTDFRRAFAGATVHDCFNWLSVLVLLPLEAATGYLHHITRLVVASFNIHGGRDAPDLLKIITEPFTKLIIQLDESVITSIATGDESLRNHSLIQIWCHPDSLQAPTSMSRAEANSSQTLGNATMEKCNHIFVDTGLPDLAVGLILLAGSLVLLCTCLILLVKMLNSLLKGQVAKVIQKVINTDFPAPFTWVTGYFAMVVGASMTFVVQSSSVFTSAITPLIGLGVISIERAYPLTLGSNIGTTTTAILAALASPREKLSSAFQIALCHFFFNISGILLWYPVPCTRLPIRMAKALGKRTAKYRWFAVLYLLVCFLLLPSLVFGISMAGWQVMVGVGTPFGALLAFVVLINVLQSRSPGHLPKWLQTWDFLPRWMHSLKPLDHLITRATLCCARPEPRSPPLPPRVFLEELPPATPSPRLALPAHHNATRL
The experiment can be described thus: Npt2a activity cell based assay, membrane potential dye, CHO T-REx hNpt2a cells. Particulars: doxycycline-induced, depolarization by sodium phosphate influx, average or median values if tested more than once. The procedure, abridged:
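Cells were doxycycline-induced CHO T-REx hNpt2a, dye-loaded and pretreated 5 min at RT with 1 nM–50 μM compound in Na-free pH 7.4 buffer. IC50 was fit to the post/pre-trigger fluorescence ratio.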
For orientation: IC50 means the concentration that gives 50% inhibition. A lower IC50 goes with inhibition by little substance. `Cc1nn(-c2cc(Nc3nn(CC4CC4)c(-c4ccc(F)cc4)c3Cl)ncn2)c(C)c1Cl` [Example 183, N-[4-chloro-1-(cyclopropylmethyl)-5-(4-fluorophenyl)-1H-pyrazol-3-yl]-6-(4-chloro-3,5-dimethyl-1H-pyrazol-1-yl)pyrimidin-4-amine] returned an IC50 of 930 nM.
Take `Cc1nn(-c2cc(Nc3nn(CC4CC4)c(-c4ccc(F)cc4)c3Cl)ncn2)c(C(F)F)c1Cl` [Example 184, N-[4-chloro-1-(cyclopropylmethyl)-5-(4-fluorophenyl)-1H-pyrazol-3-yl]-6-[4-chloro-5-(difluoromethyl)-3-methyl-1H-pyrazol-1-yl]pyrimidin-4-amine]: half-maximal inhibition (IC50) required 1200 nM. The IC50 values of the last two compounds are within 1.5-fold of each other.
`Cc1nn(-c2cc(Nc3c(Cl)c(-c4ccc(F)cc4)nn3CC3CC3)ncn2)c(C)c1Cl` [Example 185, N-[4-chloro-1-(cyclopropylmethyl)-3-(4-fluorophenyl)-1H-pyrazol-5-yl]-6-(4-chloro-3,5-dimethyl-1H-pyrazol-1-yl)pyrimidin-4-amine] gave an IC50 of 27 nM. Compared with the last compound, the IC50 is about 44-fold lower.
As for `Cc1nn(-c2cc(Nc3c(Cl)c(-c4ccc(F)cc4)nn3CC3CC3)ncn2)c(C(F)F)c1Cl` [Example 186, N-[4-chloro-1-(cyclopropylmethyl)-3-(4-fluorophenyl)-1H-pyrazol-5-yl]-6-[4-chloro-5-(difluoromethyl)-3-methyl-1H-pyrazol-1-yl]pyrimidin-4-amine], the figure is 60 nM; as for `Cc1cc(C)n(-c2cc(Nc3c(Cl)c(-c4ccc(F)cc4)nn3CC3CC3)ncn2)n1` [Example 187, N-[4-chloro-1-(cyclopropylmethyl)-3-(4-fluorophenyl)-1H-pyrazol-5-yl]-6-(3,5-dimethyl-1H-pyrazol-1-yl)pyrimidin-4-amine], 10 nM.
Under `CCc1c(Nc2cc(-n3nc(C)c(C(C)(C)O)c3C)ncn2)nn(CC2CC2)c1-c1ccc(F)cc1` [Example 188, 2-[1-(6-{[1-(cyclopropylmethyl)-4-ethyl-5-(4-fluorophenyl)-1H-pyrazol-3-yl]amino}pyrimidin-4-yl)-3,5-dimethyl-1H-pyrazol-4-yl]propan-2-ol] stands 710 nM; under `Cc1cc(C)n(-c2cc(Nc3nn(C)c(-c4cccc(C#N)c4)c3C)ncn2)n1` [Example 189, 3-(3-{[6-(3,5-dimethyl-1H-pyrazol-1-yl)pyrimidin-4-yl]amino}-1,4-dimethyl-1H-pyrazol-5-yl)benzonitrile], 74 nM.
Compound `CCc1c(Nc2cc(-n3nc(C)c(C(C)(C)O)c3C(F)F)ncn2)nn(C)c1-c1ccc(F)cc1` [Example 190, 2-[5-(difluoromethyl)-1-(6-{[4-ethyl-5-(4-fluorophenyl)-1-methyl-1H-pyrazol-3-yl]amino}pyrimidin-4-yl)-3-methyl-1H-pyrazol-4-yl]propan-2-ol] gave an IC50 of 210 nM.
In turn, `CCc1c(Nc2cc(-n3nc(C)c(Br)c3C)ncn2)nn(C)c1-c1ccc(F)cc1` [Example 191, 6-(4-bromo-3,5-dimethyl-1H-pyrazol-1-yl)-N-[4-ethyl-5-(4-fluorophenyl)-1-methyl-1H-pyrazol-3-yl]pyrimidin-4-amine] displayed an IC50 of 3 nM.
`Cc1nn(-c2cc(Nc3c(C)c(-c4ccc(C#N)cc4)nn3CC3CC3)ncn2)c(C(F)F)c1C(=O)OC(C)(C)C` [Example 192, tert-butyl 1-(6-{[3-(4-cyanophenyl)-1-(cyclopropylmethyl)-4-methyl-1H-pyrazol-5-yl]amino}pyrimidin-4-yl)-5-(difluoromethyl)-3-methyl-1H-pyrazole-4-carboxylate] gave an IC50 of 16 nM.
Regarding `CCc1c(-c2ccc(F)cc2)nn(CC2CC2)c1Nc1cc(-n2nc(C)c(C(=O)OC(C)(C)C)c2C(F)F)ncn1` [Example 193, tert-butyl 1-(6-{[1-(cyclopropylmethyl)-4-ethyl-3-(4-fluorophenyl)-1H-pyrazol-5-yl]amino}pyrimidin-4-yl)-5-(difluoromethyl)-3-methyl-1H-pyrazole-4-carboxylate], the IC50 was 51 nM. This IC50 lies about 3.2-fold higher than the previous one.
The compound `Cc1cc(C)n(-c2cc(Nc3nn(C)c(-c4ccc(F)cc4)c3CN3CCCC3)ncn2)n1` [Example 194, 6-(3,5-dimethyl-1H-pyrazol-1-yl)-N-[5-(4-fluorophenyl)-1-methyl-4-(pyrrolidin-1-ylmethyl)-1H-pyrazol-3-yl]pyrimidin-4-amine] had an IC50 of 1300 nM. Compared with the last compound, the IC50 is about 25-fold higher.
Compound `CCc1c(Nc2cc(-n3nc(C)c(Cl)c3C(C)(C)O)ncn2)nn(C)c1-c1ccc(F)cc1` [Example 195, 2-[4-chloro-1-(6-{[4-ethyl-5-(4-fluorophenyl)-1-methyl-1H-pyrazol-3-yl]amino}pyrimidin-4-yl)-3-methyl-1H-pyrazol-5-yl]propan-2-ol] came in with an IC50 of 3 nM.
With `Cc1nn(-c2cc(Nc3nn(C)c(-c4ccc(C#N)cc4)c3C)ncn2)c(C)c1Cl` [Example 196, 4-(3-{[6-(4-chloro-3,5-dimethyl-1H-pyrazol-1-yl)pyrimidin-4-yl]amino}-1,4-dimethyl-1H-pyrazol-5-yl)benzonitrile], the IC50 stood at 2 nM.
Consider `Cc1cc(C)n(-c2cc(Nc3c(C)c(-c4ccc(C#N)cc4)nn3C)ncn2)n1` [Example 197, 4-(5-{[6-(3,5-dimethyl-1H-pyrazol-1-yl)pyrimidin-4-yl]amino}-1,4-dimethyl-1H-pyrazol-3-yl)benzonitrile], for which the IC50 came out at 28 nM.
Compound `Cc1cc(C)n(-c2cc(Nc3c(C)c(-c4ccc(C#N)cc4)nn3CCC3CC3)ncn2)n1` [Example 198, 4-[1-(2-cyclopropylethyl)-5-{[6-(3,5-dimethyl-1H-pyrazol-1-yl)pyrimidin-4-yl]amino}-4-methyl-1H-pyrazol-3-yl]benzonitrile] yielded an IC50 of 12 nM.
For `Cc1cc(C)n(-c2cc(Nc3c(C)nn(-c4ccc(C#N)cc4)c3C)ncn2)n1` [Example 199, 4-(4-{[6-(3,5-dimethyl-1H-pyrazol-1-yl)pyrimidin-4-yl]amino}-3,5-dimethyl-1H-pyrazol-1-yl)benzonitrile], the IC50 came out at 36 nM.
Under `Cc1nn(-c2cc(Nc3c(C)nn(-c4ccc(C#N)cc4)c3C)ncn2)c(C(F)F)c1Cl` [Example 200, 4-[4-({6-[4-chloro-5-(difluoromethyl)-3-methyl-1H-pyrazol-1-yl]pyrimidin-4-yl}amino)-3,5-dimethyl-1H-pyrazol-1-yl]benzonitrile] stands 8 nM; under `Cc1nn(-c2cc(Nc3c(C)c(-c4ccc(C#N)cc4)nn3C)ncn2)c(C)c1Cl` [Example 201, 4-(5-{[6-(4-chloro-3,5-dimethyl-1H-pyrazol-1-yl)pyrimidin-4-yl]amino}-1,4-dimethyl-1H-pyrazol-3-yl)benzonitrile], 6 nM; under `CCc1c(-c2ccc(C#N)cc2)nn(CC2CC2)c1Nc1cc(-n2nc(C)c(C(C)=O)c2C)ncn1` [Example 202, 4-[5-{[6-(4-acetyl-3,5-dimethyl-1H-pyrazol-1-yl)pyrimidin-4-yl]amino}-1-(cyclopropylmethyl)-4-ethyl-1H-pyrazol-3-yl]benzonitrile], 13 nM.
`CCc1c(-c2ccc(C#N)cc2)nn(CC2CC2)c1Nc1cc(-n2nc(C)c3ccncc32)ncn1` [Example 203, 4-[1-(cyclopropylmethyl)-4-ethyl-5-{[6-(3-methyl-1H-pyrazolo[3,4-c]pyridin-1-yl)pyrimidin-4-yl]amino}-1H-pyrazol-3-yl]benzonitrile] came in with a half-maximal inhibitory concentration (IC50) of 1400 nM.
As to `Cc1c(-c2ccc(F)cc2)nn(CC2CC2)c1Nc1cc(-n2nc(C)c3ccncc32)ncn1` [Example 204, N-[1-(cyclopropylmethyl)-3-(4-fluorophenyl)-4-methyl-1H-pyrazol-5-yl]-6-(3-methyl-1H-pyrazolo[3,4-c]pyridin-1-yl)pyrimidin-4-amine], the 50% inhibitory concentration (IC50) amounted to 3 nM.
`CCc1c(-c2ccc(F)cc2)nn(CC2CC2)c1Nc1cc(-n2nc(C)c3ccncc32)ncn1` [Example 205, N-[1-(cyclopropylmethyl)-4-ethyl-3-(4-fluorophenyl)-1H-pyrazol-5-yl]-6-(3-methyl-1H-pyrazolo[3,4-c]pyridin-1-yl)pyrimidin-4-amine] registered an IC50 of 20 nM.
As for `CCc1c(-c2ccc(F)cc2)nn(C)c1Nc1cc(-n2nc(C)c3ccncc32)ncn1` [Example 206, N-[4-ethyl-3-(4-fluorophenyl)-1-methyl-1H-pyrazol-5-yl]-6-(3-methyl-1H-pyrazolo[3,4-c]pyridin-1-yl)pyrimidin-4-amine], the figure is 9 nM; as for `Cc1nn(-c2cc(Nc3nn(CC4CC4)c(-c4ccc(F)cc4)c3Cl)ncn2)c2cnccc12` [Example 207, N-[4-chloro-1-(cyclopropylmethyl)-5-(4-fluorophenyl)-1H-pyrazol-3-yl]-6-(3-methyl-1H-pyrazolo[3,4-c]pyridin-1-yl)pyrimidin-4-amine], 18 nM.
On to `Cc1nn(-c2cc(Nc3c(C)nn(-c4ccc(C#N)cc4)c3C)ncn2)c(C)c1Cl` [Example 208, 4-(4-{[6-(4-chloro-3,5-dimethyl-1H-pyrazol-1-yl)pyrimidin-4-yl]amino}-3,5-dimethyl-1H-pyrazol-1-yl)benzonitrile], for which the midpoint of inhibition, the IC50, lay at 465 nM.
Regarding `CCc1c(-c2ccc(C#N)cc2)nn(C)c1Nc1cc(-n2nc(C)cc2C)ncn1` [Example 209, 4-(5-{[6-(3,5-dimethyl-1H-pyrazol-1-yl)pyrimidin-4-yl]amino}-4-ethyl-1-methyl-1H-pyrazol-3-yl)benzonitrile], inhibition was half-maximal at 18 nM (IC50).
